From ChEMBL document CHEMBL1126151, “A study on the contribution of the 1-phenyl substituent to the molecular electrostatic potentials of some benzazepines in relation to selective dopamine D-1 receptor activity” (J Med Chem, 1992) come the findings set out here.

Structures are written as SMILES.

For the test, the target named is Adenylate cyclase. The experiment in a line: Compound was tested for the adenylate cyclase stimulation. It counts as protein assay.

As to `Oc1cc2c(cc1O)[C@@H](C1CCCCC1)CNCC2`, the EC50 is above 0.00001 M.

In the case of `Oc1cc2c(cc1O)CCNCC2`, the 50% effective concentration (EC50) worked out at 5.2e-06 M.

Broadly, the EC50 is the concentration at which the effect is half-maximal. Lower therefore signals greater potency.
